Results taken from PMC9962964, “^68Ga-Labeled [Thz^14]Bombesin(7–14) Analogs: Promising GRPR-Targeting Agonist PET Tracers with Low Pancreas Uptake” (Molecules, 2023).
Where two headings read alike, the source gives them in different places.

Tests used:
[1] = pH 7.4
Description: Briefly, aliquots (2 μL) of the ^68Ga-labeled peptides were added into a 15 mL falcon tube containing 3 mL of n-octanol and 3 mL of 0.1 mol/L DPBS (pH 7.4). The mixture was vortexed for 1 min and then centrifuged at 3000 rpm for 15 min. Samples of the n-octanol (1 mL) and buffer (1 mL) layers were collected and measured in a gamma counter. LogD7.4 was calculated using the following equation: LogD7.4 = log10 [(counts in the n-octanol phase)/(counts in the buffer phase)].

[2] = Ex vivo biodistribution in PC-3 tumor-bearing mice; parameters: species or system NRG mice; conditions: mouse; for tissue to tissue ratio at 1 h: male, NRG (NOD.Cg-Rag1^tm1Mom Il2rg^tm1Wjl/SzJ), iv, total radioactivity; for tissue uptake at 1 h: intravenous
Description: (§1) For biodistribution studies, the mice were injected with the radiotracer (2–4 MBq) via the tail vein as described above. For blocking, the mice were co-injected with 100 μg of [D-Phe^6,Leu-NHEt^13,des-Met^14]Bombesin(6–14). At 1 h post-injection, the mice were anesthetized through isoflurane inhalation and euthanized through CO2 inhalation. Blood was collected through a cardiac puncture, and organs/tissues of interest were collected, weighed, and counted using a Perkin Elmer (Waltham, MA, USA) Wizard2 2480 automatic gamma counter.

PC-3 tumor xenografts [3] = assay: Ex vivo biodistribution in PC-3 tumor-bearing mice; parameters: species or system NRG mice
Description: as §1

[4] = 15 min post-injection
Description: PET/CT imaging, biodistribution, and in vivo stability studies were conducted on male NOD.Cg-Rag1^tm1Mom Il2rg^tm1Wjl/SzJ (NRG) mice, following previously published procedures. The experiments were conducted according to the guidelines established by the Canadian Council on Animal Care and approved by the Animal Ethics Committee of the University of British Columbia (protocol number A20-0113, approved on 30 September 2020). […] Mice were used for PET/CT imaging and biodistribution studies when the tumor grew to 5–8 mm in diameter over around 4 weeks.
At 15 min post-injection, mice were sedated and euthanized, and urine and blood were collected. The plasma was extracted from whole blood by adding CH3CN (500 μL), vortex, centrifugation, and the separation of supernatant. The plasma and urine samples were analyzed via radio-HPLC using the conditions for quality control of these ^68Ga-labeled radioligands (Table S3).

PC-3 tumor xenografts [5] = assay: PET/CT imaging of PC-3 tumor xenografts; type: in vivo, NRG mice; conditions: 1 h post-injection
Description: PET/CT imaging experiments were performed on a Siemens (Knoxville, TN) Inveon micro PET/CT scanner. The tumor-bearing mouse was injected with 3–5 MBq of ^68Ga-labeled tracer through a lateral caudal tail vein under anesthesia, followed by recovery and roaming freely in its cage during the uptake period. At 50 min post-injection, a 10 min CT scan was conducted first for the localization and attenuation correction after segmentation for reconstructing the PET images, followed by a 10 min static PET imaging acquisition.

[6] = co-injection of 100 μg [D-Phe6,Leu-NHEt13,des-Met14]Bombesin(6–14), 1 h post-injection

CC(C)C[C@H](NC(=O)[C@H](Cc1c[nH]cn1)NC(=O)CNC(=O)[C@@H](NC(=O)[C@H](C)NC(=O)[C@H](Cc1c[nH]c2ccccc12)NC(=O)[C@H](CCC(N)=O)NC(=O)[C@@H](Cc1ccccc1)NC(=O)CN1CCC(NC(=O)CN2CCN(CC(=O)O)CCN(CC(=O)O)CCN(CC(=O)O)CC2)CC1)C(C)C)C(=O)N1CSC[C@H]1C(N)=O [[^68Ga]Ga-TacBOMB2, metal not drawn]
logD [1]: -3.21 ± 0.03 | tissue to tissue ratio at 1 h ([2]; tumor and bone, 1 h blocked: co-injected with 100 µg of [D-Phe6,Leu-NHEt13,des-Met14]Bombesin(6-14), n = 4, read-out: Tumor/bone uptake ratio): 8.94 ± 1.49 | tissue to tissue ratio at 1 h ([2]; tumor and bone, 1 h post-injection, n = 4, read-out: Tumor/bone uptake ratio): 28.9 ± 18.3 | tissue to tissue ratio at 1 h ([2]; tumor and intestines, 1 h blocked: co-injected with 100 µg of [D-Phe6,Leu-NHEt13,des-Met14]Bombesin(6-14), n = 4, read-out: Tumor/intestines uptake ratio): 3.33 ± 0.67 | tissue to tissue ratio at 1 h ([2]; tumor and intestines, 1 h post-injection, n = 4, read-out: Tumor/intestines uptake ratio): 10.5 ± 3.06 | tissue to tissue ratio at 1 h ([2]; tumor and kidney, 1 h blocked: co-injected with 100 µg of [D-Phe6,Leu-NHEt13,des-Met14]Bombesin(6-14), n = 4, read-out: Tumor/kidney uptake ratio): 0.47 ± 0.04 | tissue to tissue ratio at 1 h ([2]; tumor and kidney, 1 h post-injection, n = 4, read-out: Tumor/kidney uptake ratio): 2.46 ± 0.33 | tissue to tissue ratio at 1 h ([2]; tumor and muscle, 1 h blocked: co-injected with 100 µg of [D-Phe6,Leu-NHEt13,des-Met14]Bombesin(6-14), n = 4, read-out: Tumor/muscle uptake ratio): 7.14 ± 1.4 | tissue to tissue ratio at 1 h ([2]; tumor and muscle, 1 h post-injection, n = 4, read-out: Tumor/muscle uptake ratio): 57.9 ± 32.8 | tissue to tissue ratio at 1 h ([2]; tumor and pancreas, 1 h blocked: co-injected with 100 µg of [D-Phe6,Leu-NHEt13,des-Met14]Bombesin(6-14), n = 4, read-out: Tumor/pancreas uptake ratio): 6.22 ± 0.67 | tissue to tissue ratio at 1 h ([2]; tumor and pancreas, 1 h post-injection, n = 4, read-out: Tumor/pancreas uptake ratio): 4.64 ± 0.77 | tissue to tissue ratio at 1 h ([2]; tumor and whole blood, 1 h post-injection, n = 4, read-out: Tumor/blood uptake ratio): 16.4 ± 5.64 | tissue uptake at 1 h ([2]; PC-3 tumor, 100 ug, 1 h blocked: co-injected with 100 µg of [D-Phe6,Leu-NHEt13,des-Met14]Bombesin(6-14), n = 4, read-out: PC-3 tumor uptake): 0.92 ± 0.22 %ID/g | tissue uptake at 1 h ([2]; PC-3 tumor, 1 h post-injection, n = 4, read-out: PC-3 tumor uptake): 5.95 ± 0.5 %ID/g | tissue uptake at 1 h ([2]; blood, 100 ug, 1 h blocked: co-injected with 100 µg of [D-Phe6,Leu-NHEt13,des-Met14]Bombesin(6-14), n = 4, read-out: Blood uptake): 0.55 ± 0.19 %ID/g | tissue uptake at 1 h ([2]; blood, 1 h post-injection, n = 4, read-out: Blood uptake): 0.39 ± 0.12 %ID/g | tissue uptake at 1 h ([2]; bone, 100 ug, 1 h blocked: co-injected with 100 µg of [D-Phe6,Leu-NHEt13,des-Met14]Bombesin(6-14), n = 4, read-out: Bone uptake): 0.1 ± 0.03 %ID/g | tissue uptake at 1 h ([2]; bone, 1 h post-injection, n = 4, read-out: Bone uptake): 0.26 ± 0.11 %ID/g | tissue uptake at 1 h ([2]; brain, 100 ug, 1 h blocked: co-injected with 100 µg of [D-Phe6,Leu-NHEt13,des-Met14]Bombesin(6-14), n = 4, read-out: Brain uptake): 0.02 %ID/g | tissue uptake at 1 h ([2]; brain, muscle, fat, bone, liver, stomach, heart, and spleen, 1 h post-injection, read-out: Uptake values for the brain, muscle, fat, bone, liver, stomach, heart, and spleen): < 1 %ID/g | tissue uptake at 1 h ([2]; fat, 100 ug, 1 h blocked: co-injected with 100 µg of [D-Phe6,Leu-NHEt13,des-Met14]Bombesin(6-14), n = 4, read-out: Fat uptake): 0.07 ± 0.02 %ID/g | tissue uptake at 1 h ([2]; fat, 1 h post-injection, n = 4, read-out: Fat uptake): 0.1 ± 0.03 %ID/g | tissue uptake at 1 h ([2]; heart, 100 ug, 1 h blocked: co-injected with 100 µg of [D-Phe6,Leu-NHEt13,des-Met14]Bombesin(6-14), n = 4, read-out: Heart uptake): 0.16 ± 0.04 %ID/g | tissue uptake at 1 h ([2]; heart, 1 h post-injection, n = 4, read-out: Heart uptake): 0.14 ± 0.02 %ID/g | tissue uptake at 1 h ([2]; intestines, 100 ug, 1 h blocked: co-injected with 100 µg of [D-Phe6,Leu-NHEt13,des-Met14]Bombesin(6-14), n = 4, read-out: Intestines uptake): 0.28 ± 0.07 %ID/g | tissue uptake at 1 h ([2]; intestines, 1 h post-injection, n = 4, read-out: Intestines uptake): 0.6 ± 0.12 %ID/g | tissue uptake at 1 h ([2]; kidneys, 100 ug, 1 h blocked: co-injected with 100 µg of [D-Phe6,Leu-NHEt13,des-Met14]Bombesin(6-14), n = 4, read-out: Kidneys uptake): 1.99 ± 0.59 %ID/g | tissue uptake at 1 h ([2]; kidneys, 1 h post-injection, n = 4, read-out: Kidneys uptake): 2.43 ± 0.16 %ID/g | tissue uptake at 1 h ([2]; lungs, 100 ug, 1 h blocked: co-injected with 100 µg of [D-Phe6,Leu-NHEt13,des-Met14]Bombesin(6-14), n = 4, read-out: Lungs uptake): 0.39 ± 0.1 %ID/g | tissue uptake at 1 h ([2]; lungs, 1 h post-injection, n = 4, read-out: Lungs uptake): 0.39 ± 0.1 %ID/g | tissue uptake at 1 h ([2]; pancreas, 100 ug, 1 h blocked: co-injected with 100 µg of [D-Phe6,Leu-NHEt13,des-Met14]Bombesin(6-14), n = 4, read-out: Pancreas uptake): 0.15 ± 0.03 %ID/g | tissue uptake at 1 h ([2]; pancreas, 1 h post-injection, n = 4, read-out: Pancreas uptake): 1.3 ± 0.14 %ID/g | tissue uptake at 1 h ([2]; spleen, 100 ug, 1 h blocked: co-injected with 100 µg of [D-Phe6,Leu-NHEt13,des-Met14]Bombesin(6-14), n = 4, read-out: Spleen uptake): 0.18 ± 0.05 %ID/g | tissue uptake at 1 h ([2]; spleen, 1 h post-injection, n = 4, read-out: Spleen uptake): 0.27 ± 0.1 %ID/g | tissue uptake at 1 h ([2]; stomach, 100 ug, 1 h blocked: co-injected with 100 µg of [D-Phe6,Leu-NHEt13,des-Met14]Bombesin(6-14), n = 4, read-out: Stomach uptake): 0.13 ± 0.06 %ID/g | tissue uptake at 1 h ([2]; testes, 100 ug, 1 h blocked: co-injected with 100 µg of [D-Phe6,Leu-NHEt13,des-Met14]Bombesin(6-14), n = 4, read-out: Testes uptake): 0.21 ± 0.16 %ID/g | Tumor/blood uptake ratio (PC-3 tumor xenografts [3]; 1 h blocked: co-injected with 100 µg of [D-Phe6,Leu-NHEt13,des-Met14]Bombesin(6-14), n = 4): 1.71 ± 0.18 | reduction of average uptake in PC-3 tumor xenografts by co-injection of blocker (PC-3 tumor xenografts [3]; [6]): 85% | reduction of average uptake in pancreas by co-injection of blocker (PC-3 tumor xenografts [3]; [6]): 88% | reduction of average uptake in stomach by co-injection of blocker (PC-3 tumor xenografts [3]; [6]): 76% | intact fraction in plasma ([4]; mouse plasma, n = 3): 12.7 ± 2.93% | intact tracer in urine ([4]; mouse urine): no intact | visualization of PC-3 tumor xenografts in PET images (PC-3 tumor xenografts [5]): clearly visualized | excretion pathway (PC-3 tumor xenografts [5]; PET images): primarily excreted via the renal pathway
